Data reported in the kinase profiling compilation of Christmann-Franck et al. (2016).

Assays:
Test in all cases: radiometric filter-binding kinase assay, Kinase HotSpot
Details in all cases: compound 0.5 µM; ATP 10 µM
DYRK2 (human) = DYRK2 (human) (UniProt Q92630)
EPHB3 (human) = EPHB3 (human) (UniProt P54753)
PKN1 (human) = PKN1 (human) (UniProt Q16512)
PNCK (human) = PNCK (human) (UniProt Q6P2M8)
PRKCD (human) = PRKCD (human) (UniProt Q05655)
EPHA5 (human) = EPHA5 (human) (UniProt P54756)
CSNK1G2 (human) = CSNK1G2 (human) (UniProt P78368)
MATK (human) = MATK (human) (UniProt P42679)
[1] = tested on: MKNK1 (human), Q9BUB5 [T385D; 165-205 del]
PRKX (human) = PRKX (human) (UniProt P51817)
STK17A (human) = STK17A (human) (UniProt Q9UEE5)
FYN (human) = FYN (human) (UniProt P06241)
MAP4K4 (human) = MAP4K4 (human) (UniProt O95819)
CHEK1 (human) = CHEK1 (human) (UniProt O14757)
NUAK2 (human) = NUAK2 (human) (UniProt Q9H093)
STK10 (human) = STK10 (human) (UniProt O94804)
HIPK3 (human) = HIPK3 (human) (UniProt Q9H422)
CDK5 CDK5R1 p25 (human) = CDK5 CDK5R1 p25 (human) (UniProt Q00535+Q15078)
MST4 (human) = MST4 (human) (UniProt Q9P289)
MAPK3 (human) = MAPK3 (human) (UniProt P27361)
MELK (human) = MELK (human) (UniProt Q14680)
PIM1 (human) = PIM1 (human) (UniProt P11309)
PBK (human) = PBK (human) (UniProt Q96KB5)
MET (human) = MET (human) (UniProt P08581)
VRK1 (human) = VRK1 (human) (UniProt Q99986)
ROCK1 (human) = ROCK1 (human) (UniProt Q13464)
TSSK2 (human) = TSSK2 (human) (UniProt Q96PF2)
PRKCH (human) = PRKCH (human) (UniProt P24723)
MARK3 (human) = MARK3 (human) (UniProt P27448)
MARK4 (human) = MARK4 (human) (UniProt Q96L34)
AKT2 (human) = AKT2 (human) (UniProt P31751)
RPS6KA2 KD1 KD2 (human) = RPS6KA2 KD1 KD2 (human) (UniProt Q15349)
MAP3K8 (human) = MAP3K8 (human) (UniProt P41279)
HCK (human) = HCK (human) (UniProt P08631)
EPHA7 (human) = EPHA7 (human) (UniProt Q15375)
STK11 (human) = STK11 (human) (UniProt Q15831)
BMX (human) = BMX (human) (UniProt P51813)
CDK6 CCND3 (human) = CDK6 CCND3 (human) (UniProt P30281+Q00534)
[2] = biological target: TYK2 JH1 catalytic (human) (UniProt P29597)
NEK11 (human) = NEK11 (human) (UniProt Q8NG66)
RPS6KA1 KD1 KD2 (human) = RPS6KA1 KD1 KD2 (human) (UniProt Q15418)
MKNK2 (human) = MKNK2 (human) (UniProt Q9HBH9)

TSSK2 (human), sequence (Q96PF2 whole entry, looked up): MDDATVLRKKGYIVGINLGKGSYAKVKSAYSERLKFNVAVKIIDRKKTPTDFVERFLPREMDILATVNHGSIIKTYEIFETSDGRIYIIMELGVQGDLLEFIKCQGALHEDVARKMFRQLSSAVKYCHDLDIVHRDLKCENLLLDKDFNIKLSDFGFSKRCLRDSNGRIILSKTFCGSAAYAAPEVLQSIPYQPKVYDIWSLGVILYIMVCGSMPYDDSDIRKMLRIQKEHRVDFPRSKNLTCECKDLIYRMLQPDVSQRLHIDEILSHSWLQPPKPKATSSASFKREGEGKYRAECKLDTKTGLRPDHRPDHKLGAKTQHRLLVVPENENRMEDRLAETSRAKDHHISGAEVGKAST
PRKX (human), sequence (P51817 whole entry, looked up): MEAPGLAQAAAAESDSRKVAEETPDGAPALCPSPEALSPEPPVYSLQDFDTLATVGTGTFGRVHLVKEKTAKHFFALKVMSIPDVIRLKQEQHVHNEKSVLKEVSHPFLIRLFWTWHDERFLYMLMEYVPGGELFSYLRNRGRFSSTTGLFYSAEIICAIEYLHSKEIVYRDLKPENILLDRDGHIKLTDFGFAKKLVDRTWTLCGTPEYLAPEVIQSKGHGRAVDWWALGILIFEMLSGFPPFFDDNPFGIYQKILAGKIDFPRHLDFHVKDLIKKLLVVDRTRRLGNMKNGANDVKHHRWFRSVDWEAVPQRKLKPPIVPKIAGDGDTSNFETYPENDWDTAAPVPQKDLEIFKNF
PRKCD (human), sequence (Q05655 whole entry, looked up): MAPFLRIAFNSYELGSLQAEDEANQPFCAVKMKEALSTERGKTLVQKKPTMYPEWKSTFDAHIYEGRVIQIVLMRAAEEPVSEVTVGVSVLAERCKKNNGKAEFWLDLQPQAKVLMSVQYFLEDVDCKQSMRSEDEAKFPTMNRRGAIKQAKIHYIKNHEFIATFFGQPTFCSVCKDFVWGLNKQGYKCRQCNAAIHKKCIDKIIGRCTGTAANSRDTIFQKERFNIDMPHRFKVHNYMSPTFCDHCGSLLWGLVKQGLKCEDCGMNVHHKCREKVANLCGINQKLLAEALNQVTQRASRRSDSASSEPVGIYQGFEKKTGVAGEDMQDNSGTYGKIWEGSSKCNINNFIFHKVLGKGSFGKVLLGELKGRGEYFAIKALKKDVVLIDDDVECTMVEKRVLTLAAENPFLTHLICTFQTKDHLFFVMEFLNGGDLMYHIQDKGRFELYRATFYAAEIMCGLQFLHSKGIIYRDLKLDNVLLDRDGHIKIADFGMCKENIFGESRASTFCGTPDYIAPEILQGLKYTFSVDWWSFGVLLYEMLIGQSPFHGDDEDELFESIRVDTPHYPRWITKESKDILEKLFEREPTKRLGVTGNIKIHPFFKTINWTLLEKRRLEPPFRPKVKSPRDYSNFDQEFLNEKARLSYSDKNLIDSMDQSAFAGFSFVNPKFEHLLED
PIM1 (human), sequence (P11309 whole entry, looked up): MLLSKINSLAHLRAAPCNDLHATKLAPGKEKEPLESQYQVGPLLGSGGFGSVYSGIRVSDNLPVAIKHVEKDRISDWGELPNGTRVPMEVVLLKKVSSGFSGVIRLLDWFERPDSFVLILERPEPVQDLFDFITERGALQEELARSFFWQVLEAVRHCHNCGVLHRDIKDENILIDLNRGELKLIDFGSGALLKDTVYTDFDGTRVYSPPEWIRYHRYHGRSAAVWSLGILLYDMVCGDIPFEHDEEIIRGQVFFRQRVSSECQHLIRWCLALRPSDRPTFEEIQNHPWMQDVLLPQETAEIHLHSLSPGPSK
MST4 (human), sequence (Q9P289 whole entry, looked up): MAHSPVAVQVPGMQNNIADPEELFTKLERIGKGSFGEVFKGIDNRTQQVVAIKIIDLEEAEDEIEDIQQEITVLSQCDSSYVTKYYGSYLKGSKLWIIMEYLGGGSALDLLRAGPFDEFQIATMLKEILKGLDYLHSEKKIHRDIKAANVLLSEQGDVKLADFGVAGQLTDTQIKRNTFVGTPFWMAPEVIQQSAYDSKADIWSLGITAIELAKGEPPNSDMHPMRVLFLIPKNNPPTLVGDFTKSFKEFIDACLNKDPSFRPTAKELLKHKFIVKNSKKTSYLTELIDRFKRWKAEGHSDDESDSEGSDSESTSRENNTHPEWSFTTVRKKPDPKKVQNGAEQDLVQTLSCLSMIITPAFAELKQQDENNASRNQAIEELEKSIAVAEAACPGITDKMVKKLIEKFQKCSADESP
NUAK2 (human), sequence (Q9H093 whole entry, looked up): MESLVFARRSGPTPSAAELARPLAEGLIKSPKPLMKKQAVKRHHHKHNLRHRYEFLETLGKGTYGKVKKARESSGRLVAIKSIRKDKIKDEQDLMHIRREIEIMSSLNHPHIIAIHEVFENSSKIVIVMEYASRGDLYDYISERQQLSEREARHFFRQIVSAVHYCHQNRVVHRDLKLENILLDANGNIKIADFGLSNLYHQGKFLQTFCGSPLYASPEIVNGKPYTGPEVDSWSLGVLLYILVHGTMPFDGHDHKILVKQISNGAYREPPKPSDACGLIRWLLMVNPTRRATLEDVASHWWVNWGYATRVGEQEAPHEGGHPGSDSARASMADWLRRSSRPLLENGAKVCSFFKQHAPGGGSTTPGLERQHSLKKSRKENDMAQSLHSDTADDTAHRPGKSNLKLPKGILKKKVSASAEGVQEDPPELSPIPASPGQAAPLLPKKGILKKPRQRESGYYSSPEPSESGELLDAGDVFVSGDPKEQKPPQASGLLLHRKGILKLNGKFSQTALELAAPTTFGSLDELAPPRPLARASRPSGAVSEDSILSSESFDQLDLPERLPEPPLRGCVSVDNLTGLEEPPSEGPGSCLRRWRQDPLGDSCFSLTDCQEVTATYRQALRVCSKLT
MAP3K8 (human), sequence (P41279 whole entry, looked up): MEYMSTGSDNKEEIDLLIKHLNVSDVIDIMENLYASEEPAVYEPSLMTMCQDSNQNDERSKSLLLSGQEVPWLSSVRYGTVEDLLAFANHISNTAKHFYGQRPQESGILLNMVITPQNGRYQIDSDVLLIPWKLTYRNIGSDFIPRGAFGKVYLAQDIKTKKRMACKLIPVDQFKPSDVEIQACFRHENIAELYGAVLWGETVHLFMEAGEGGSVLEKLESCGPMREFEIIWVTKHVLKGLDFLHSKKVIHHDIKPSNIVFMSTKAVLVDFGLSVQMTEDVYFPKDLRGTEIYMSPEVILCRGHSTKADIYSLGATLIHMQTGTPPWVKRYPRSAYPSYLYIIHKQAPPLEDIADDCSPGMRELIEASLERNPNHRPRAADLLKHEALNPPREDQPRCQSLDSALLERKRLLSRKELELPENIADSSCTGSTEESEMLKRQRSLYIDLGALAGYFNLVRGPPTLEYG
EPHA7 (human), sequence (Q15375 whole entry, looked up): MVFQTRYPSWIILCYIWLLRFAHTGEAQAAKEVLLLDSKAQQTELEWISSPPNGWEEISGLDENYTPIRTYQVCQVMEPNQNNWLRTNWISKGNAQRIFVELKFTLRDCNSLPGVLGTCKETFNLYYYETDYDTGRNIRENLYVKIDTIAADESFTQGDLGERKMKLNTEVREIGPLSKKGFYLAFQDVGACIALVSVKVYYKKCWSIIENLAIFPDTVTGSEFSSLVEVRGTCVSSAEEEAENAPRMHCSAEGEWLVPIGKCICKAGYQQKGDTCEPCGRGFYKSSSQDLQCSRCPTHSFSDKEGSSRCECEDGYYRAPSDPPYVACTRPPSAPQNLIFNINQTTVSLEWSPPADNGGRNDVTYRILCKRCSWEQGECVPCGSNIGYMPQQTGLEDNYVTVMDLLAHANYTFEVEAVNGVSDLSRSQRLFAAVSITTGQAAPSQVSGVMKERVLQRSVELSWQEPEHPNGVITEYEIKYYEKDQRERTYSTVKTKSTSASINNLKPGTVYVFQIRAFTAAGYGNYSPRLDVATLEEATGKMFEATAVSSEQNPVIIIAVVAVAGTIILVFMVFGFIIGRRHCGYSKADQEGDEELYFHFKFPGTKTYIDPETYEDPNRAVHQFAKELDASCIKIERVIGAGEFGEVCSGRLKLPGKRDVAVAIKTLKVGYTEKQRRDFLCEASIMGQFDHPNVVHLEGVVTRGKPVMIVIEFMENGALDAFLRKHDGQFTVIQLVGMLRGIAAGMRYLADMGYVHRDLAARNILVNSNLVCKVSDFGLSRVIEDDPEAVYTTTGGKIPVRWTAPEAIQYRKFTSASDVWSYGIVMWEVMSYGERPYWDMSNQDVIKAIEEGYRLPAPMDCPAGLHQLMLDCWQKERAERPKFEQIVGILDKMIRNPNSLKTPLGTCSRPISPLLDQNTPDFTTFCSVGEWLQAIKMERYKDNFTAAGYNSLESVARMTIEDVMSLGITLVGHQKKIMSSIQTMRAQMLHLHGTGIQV
MKNK1 (human), Q9BUB5 [T385D; 165-205 del], sequence (Q9BUB5 whole entry, looked up, stated change not applied): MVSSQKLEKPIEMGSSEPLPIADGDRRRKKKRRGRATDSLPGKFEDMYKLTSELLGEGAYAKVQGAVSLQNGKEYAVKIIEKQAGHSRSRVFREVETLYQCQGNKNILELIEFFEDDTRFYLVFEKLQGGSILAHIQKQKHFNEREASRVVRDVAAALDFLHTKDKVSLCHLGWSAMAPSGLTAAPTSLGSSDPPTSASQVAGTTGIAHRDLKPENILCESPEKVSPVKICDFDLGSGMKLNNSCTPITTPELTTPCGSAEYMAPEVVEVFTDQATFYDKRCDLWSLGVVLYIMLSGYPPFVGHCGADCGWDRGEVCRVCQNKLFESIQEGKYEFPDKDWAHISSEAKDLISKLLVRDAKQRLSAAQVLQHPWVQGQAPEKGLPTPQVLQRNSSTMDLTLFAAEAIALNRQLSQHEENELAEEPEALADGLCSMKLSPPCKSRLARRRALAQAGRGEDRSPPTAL

COc1ccc(C(=O)Nc2sc3c(c2C(N)=O)CCCC3)cc1OC
residual activity (DYRK2 (human)): 92% | residual activity (EPHB3 (human)): 92.4% | residual activity (PKN1 (human)): 96.3% | residual activity (PNCK (human)): 103% | residual activity (PRKCD (human)): 81.8% | residual activity (EPHA5 (human)): 104% | residual activity (CSNK1G2 (human)): 98.7% | residual activity (MATK (human)): 92.7% | residual activity [1]: 98.2% | residual activity (PRKX (human)): 101% | residual activity (STK17A (human)): 98.5% | residual activity (FYN (human)): 93.9% | residual activity (MAP4K4 (human)): 79.9% | residual activity (CHEK1 (human)): 112% | residual activity (NUAK2 (human)): 99.5% | residual activity (STK10 (human)): 93.9% | residual activity (HIPK3 (human)): 105% | residual activity (CDK5 CDK5R1 p25 (human)): 94.2% | residual activity (MST4 (human)): 96.6% | residual activity (MAPK3 (human)): 95.2% | residual activity (MELK (human)): 46% | residual activity (PIM1 (human)): 98.9% | residual activity (PBK (human)): 103% | residual activity (MET (human)): 82.8% | residual activity (VRK1 (human)): 95.3% | residual activity (ROCK1 (human)): 107% | residual activity (TSSK2 (human)): 94.6% | residual activity (PRKCH (human)): 101% | residual activity (MARK3 (human)): 94.1% | residual activity (MARK4 (human)): 86.5% | residual activity (AKT2 (human)): 97% | residual activity (RPS6KA2 KD1 KD2 (human)): 112% | residual activity (MAP3K8 (human)): 106% | residual activity (HCK (human)): 109% | residual activity (EPHA7 (human)): 96.2% | residual activity (STK11 (human)): 103% | residual activity (BMX (human)): 89.8% | residual activity (CDK6 CCND3 (human)): 94.9% | residual activity [2]: 117% | residual activity (NEK11 (human)): 102% | residual activity (RPS6KA1 KD1 KD2 (human)): 87% | residual activity (MKNK2 (human)): 78.7%

COc1ccc2c(c1)c(C1=C(c3c[nH]c4ccccc34)C(=O)NC1=O)cn2CCCN(C)C
residual activity (DYRK2 (human)): 92.4% | residual activity (EPHB3 (human)): 97% | residual activity (PKN1 (human)): 34.7% | residual activity (PNCK (human)): 103% | residual activity (PRKCD (human)): 1.67% | residual activity (EPHA5 (human)): 87.2% | residual activity (CSNK1G2 (human)): 82.2% | residual activity (MATK (human)): 99.3% | residual activity [1]: 92.8% | residual activity (PRKX (human)): 102% | residual activity (STK17A (human)): 84% | residual activity (FYN (human)): 110% | residual activity (MAP4K4 (human)): 37.8% | residual activity (CHEK1 (human)): 88.8% | residual activity (NUAK2 (human)): 81% | residual activity (STK10 (human)): 31.7% | residual activity (HIPK3 (human)): 74.1% | residual activity (CDK5 CDK5R1 p25 (human)): 114% | residual activity (MST4 (human)): 40.4% | residual activity (MAPK3 (human)): 93% | residual activity (MELK (human)): 70.7% | residual activity (PIM1 (human)): 11.6% | residual activity (PBK (human)): 96.8% | residual activity (MET (human)): 85.6% | residual activity (VRK1 (human)): 76.7% | residual activity (ROCK1 (human)): 93.5% | residual activity (TSSK2 (human)): 85.5% | residual activity (PRKCH (human)): 6.85% | residual activity (MARK3 (human)): 92.2% | residual activity (MARK4 (human)): 95.9% | residual activity (AKT2 (human)): 110% | residual activity (RPS6KA2 KD1 KD2 (human)): 5.46% | residual activity (MAP3K8 (human)): 93.8% | residual activity (HCK (human)): 111% | residual activity (EPHA7 (human)): 88.8% | residual activity (STK11 (human)): 101% | residual activity (BMX (human)): 96.3% | residual activity (CDK6 CCND3 (human)): 85% | residual activity [2]: 126% | residual activity (NEK11 (human)): 91.6% | residual activity (RPS6KA1 KD1 KD2 (human)): 16% | residual activity (MKNK2 (human)): 81.1%

CCCCc1c(-c2ccc(OC)cc2)[nH]c2nccnc12
residual activity (DYRK2 (human)): 92.9% | residual activity (EPHB3 (human)): 99.8% | residual activity (PKN1 (human)): 89.1% | residual activity (PNCK (human)): 120% | residual activity (PRKCD (human)): 92.8% | residual activity (EPHA5 (human)): 91.6% | residual activity (CSNK1G2 (human)): 92.5% | residual activity (MATK (human)): 101% | residual activity [1]: 97.7% | residual activity (PRKX (human)): 102% | residual activity (STK17A (human)): 95.5% | residual activity (FYN (human)): 61.3% | residual activity (MAP4K4 (human)): 66.5% | residual activity (CHEK1 (human)): 93.1% | residual activity (NUAK2 (human)): 68% | residual activity (STK10 (human)): 95.4% | residual activity (HIPK3 (human)): 99.9% | residual activity (CDK5 CDK5R1 p25 (human)): 41.3% | residual activity (MST4 (human)): 75.8% | residual activity (MAPK3 (human)): 111% | residual activity (MELK (human)): 84.4% | residual activity (PIM1 (human)): 97% | residual activity (PBK (human)): 80.6% | residual activity (MET (human)): 86.8% | residual activity (VRK1 (human)): 95.5% | residual activity (ROCK1 (human)): 99.9% | residual activity (TSSK2 (human)): 93.7% | residual activity (PRKCH (human)): 103% | residual activity (MARK3 (human)): 91.2% | residual activity (MARK4 (human)): 88.3% | residual activity (AKT2 (human)): 93.8% | residual activity (RPS6KA2 KD1 KD2 (human)): 93% | residual activity (MAP3K8 (human)): 98.2% | residual activity (HCK (human)): 94.4% | residual activity (EPHA7 (human)): 98% | residual activity (STK11 (human)): 74.5% | residual activity (BMX (human)): 82.2% | residual activity (CDK6 CCND3 (human)): 79.7% | residual activity [2]: 38.8% | residual activity (NEK11 (human)): 93.6% | residual activity (RPS6KA1 KD1 KD2 (human)): 89.8% | residual activity (MKNK2 (human)): 99.3%

COc1ccc2c(c1)/C(=C/c1cnc[nH]1)C(O)=N2
residual activity (DYRK2 (human)): 76.9% | residual activity (EPHB3 (human)): 98.8% | residual activity (PKN1 (human)): 87.4% | residual activity (PNCK (human)): 86.3% | residual activity (PRKCD (human)): 95.5% | residual activity (EPHA5 (human)): 86.2% | residual activity (CSNK1G2 (human)): 95.3% | residual activity (MATK (human)): 92.3% | residual activity [1]: 88.4% | residual activity (PRKX (human)): 87.9% | residual activity (STK17A (human)): 42.3% | residual activity (FYN (human)): 81.2% | residual activity (MAP4K4 (human)): 19.4% | residual activity (CHEK1 (human)): 76% | residual activity (NUAK2 (human)): 116% | residual activity (STK10 (human)): 67% | residual activity (HIPK3 (human)): 101% | residual activity (CDK5 CDK5R1 p25 (human)): 4.52% | residual activity (MST4 (human)): 88.5% | residual activity (MAPK3 (human)): 87.2% | residual activity (MELK (human)): 36.5% | residual activity (PIM1 (human)): 90.8% | residual activity (PBK (human)): 124% | residual activity (MET (human)): 103% | residual activity (VRK1 (human)): 91.2% | residual activity (ROCK1 (human)): 96% | residual activity (TSSK2 (human)): 97.3% | residual activity (PRKCH (human)): 111% | residual activity (MARK3 (human)): 56.2% | residual activity (MARK4 (human)): 37.4% | residual activity (AKT2 (human)): 106% | residual activity (RPS6KA2 KD1 KD2 (human)): 44.3% | residual activity (MAP3K8 (human)): 91.1% | residual activity (HCK (human)): 96.1% | residual activity (EPHA7 (human)): 90.4% | residual activity (STK11 (human)): 51.7% | residual activity (BMX (human)): 100% | residual activity (CDK6 CCND3 (human)): 28% | residual activity [2]: 45% | residual activity (NEK11 (human)): 84.8% | residual activity (RPS6KA1 KD1 KD2 (human)): 69.6% | residual activity (MKNK2 (human)): 84.9%
